Measurements taken from patent US20250059205A1, “Heterocyclic Compounds and Methods of Use” (AMGEN INC., priority 2021, published 2025).

What was measured:
[1] = biological target: His-tagged KRAS G12D protein (Homo sapiens, UniProt P01116, G12D); assay: KRAS G12D TR-FRET Assay; assay type: binding
Description: Compounds of interest were prepared in a dose-response titration in DMSO, and 80 nL were added via Labcyte Echo to each well of a 384-well plate (Perkin Elmer 6008280). […] The plate was incubated for 30 minutes at room temperature. Biotinylated KRPep-2d substrate (Amgen) was diluted to 20 nM in Assay Buffer and 2 μL was added to all wells and incubated for 1 h at room temperature. Detection Reagent (0.4 nM LANCE Eu-W1024 Anti-6xHis (Perkin Elmer AD0401), 5 nM streptavidin-d2 (Cisbio 610SADLA)) was prepared in Assay Buffer, then 4 μL was added to the plate and incubated for 1 h at room temperature. Plates were read using PerkinElmer EnVision (ex: 320 nm, em1: 665 nm, em2: 615 nm) and em1/em2 data was used to generate curve fits using a 4-parameter logistic model to calculate IC50 values.

[2] = tested on: Phosphorylation of ERK1/2 in AsPC-1 cells; assay: Phospho-ERK1/2 MSD Assay (AsPC-1 cells); assay type: cell-based; conditions: Homo sapiens, ASPC1, 2 h, 2 hours treatment, read-out: p-ERK (AsPC-1 cells) IC50
Description: (§1) AsPC-1 (ATCC® CRL-1682™) cells were cultured in RPMI 1640 Medium (ThermoFisher Scientific 11875093) containing 10% fetal bovine serum (ThermoFisher Scientific 16000044) and 1× penicillin-streptomycin-glutamine (ThermoFisher Scientific 10378016). Sixteen hours prior to compound treatment, AsPC-1 cells were seeded in 96-well cell culture plates at a density of 25,000 cells/well and incubated at 37° C., 5% CO2. A compound dose-response titration was diluted in growth media, added to appropriate wells of a cell culture plate, and then incubated at 37° C., 5% CO2 for 2 hours. Following compound treatment, cells were washed with ice-cold Dulbecco's phosphate-buffered saline, no Ca^2+ or Mg^2+ (ThermoFisher Scientific 14190144), and then lysed in RIPA buffer (50 mM Tris-HCl pH 7.5, 1% Igepal, 0.5% sodium deoxycholate, 150 mM NaCl, and 0.5% sodium dodecyl sulfate) containing protease inhibitors (Roche 4693132001) and phosphatase inhibitors (Roche 4906837001). Phosphorylation of ERK1/2 in compound-treated lysates was assayed using Phospho-ERK1/2 Whole Cell Lysate kits (Meso Scale Discovery K151DWD) according to the manufacturer's protocol. Assay plates were read on a Meso Scale Discovery Sector Imager 6000, and data were analyzed using a 4-parameter logistic model to calculate IC50 values.

[3] = tested on: Phosphorylation of ERK1/2 in A-427 cells; assay: Phospho-ERK1/2 MSD Assay (A-427 cells); assay type: cell-based; conditions: Homo sapiens, A-427, 2 h, 2 h treatment, read-out: p-ERK (A427 cells) IC50
Description: as §1, with “A-427” for “AsPC-1”, “HTB-53™)” for “CRL-1682™)”, “h.” for “hours.”

[4] = biological target: GDP-bound KRAS protein (aa 1-169), containing both G12D and C118A amino acid substitutions (Homo sapiens, UniProt P01116, C118A/G12D); assay: KRAS G12D Coupled Nucleotide Exchange Assay; assay type: biochemical; conditions: 2 h compound pre-incubation
Chain of GDP-bound KRAS protein (aa 1-169), containing both G12D and C118A amino acid substitutions (P01116 1-169 isoform P01116-2 G12D/C118A): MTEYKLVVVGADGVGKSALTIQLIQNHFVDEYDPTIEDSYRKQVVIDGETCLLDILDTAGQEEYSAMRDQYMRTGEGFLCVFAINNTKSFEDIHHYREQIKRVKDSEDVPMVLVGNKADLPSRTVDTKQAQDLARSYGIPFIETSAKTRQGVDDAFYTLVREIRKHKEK
Description: Following compound pre-incubation, purified SOS protein (aa 564-1049) and GTP (Roche 10106399001) were added to the assay wells and incubated for an additional 30 min. […] The assay plates were then read on a PerkinElmer EnVision Multilabel Reader, using AlphaScreen® technology, and data were analyzed using a 4-parameter logistic model to calculate IC50 values.

Chain of His-tagged KRAS G12D protein (P01116 1-188 isoform P01116-2 G12D): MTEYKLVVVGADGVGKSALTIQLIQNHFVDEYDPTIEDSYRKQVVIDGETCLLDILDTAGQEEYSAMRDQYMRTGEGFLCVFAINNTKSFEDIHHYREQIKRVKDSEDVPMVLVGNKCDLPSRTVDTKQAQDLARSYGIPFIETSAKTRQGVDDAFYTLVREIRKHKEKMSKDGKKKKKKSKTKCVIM

CN1CCC[C@H]1CCOc1nc(N2[C@@H]3CNC[C@H]2COC3)c2ccc(-c3cc(O)cc4ccccc34)c(F)c2n1 [Example 9, 4-(4-((1R,5S)-3-oxa-7,9-diazabicyclo[3.3. 1]nonan-9-yl)-8-fluoro-2-(2-((S)-1-methylpyrrolidin-2-yl)ethoxy)quinazolin-7-yl)naphthalen-2-ol]
IC50 [1]: 456 nM | IC50 [2]: > 25000 nM | IC50 [3]: > 25000 nM | Avg 2 h Coupled Exchange IC50 [4]: 125 nM

C#Cc1cccc2cc(O)cc(-c3c(F)cc4c(N5C[C@H]6C[C@@H](C5)N6)nc(OC[C@@]56CCCN5C[C@H](F)C6)nc4c3F)c12 [Example 183, 4-(4-((1R,5S)-3,6-diazabicyclo[3.1.1]heptan-3-yl)-6,8-difluoro-2-(((2R,7aS)-2-fluorotetrahydro-1H-pyrrolizin-7a(5H)-yl)methoxy)quinazolin-7-yl)-5-ethynylnaphthalen-2-ol]
IC50 [1]: 2 nM | IC50 [2]: 5400 nM | IC50 [3]: 1480 nM | Avg 2 h Coupled Exchange IC50 [4]: 4 nM

CCc1c(F)ccc2cc(O)cc(-c3c(F)cc4c(N5C[C@H]6CC[C@@H](C5)N6)nc(OC[C@@H]5C[C@@H](F)CN5C)nc4c3F)c12 [Example 89, 4-(4-((1R,5S)-3,8-diazabicyclo[3.2. 1]octan-3-yl)-6,8-difluoro-2-(((2S,4R)-4-fluoro-1-methylpyrrolidin-2-yl)methoxy)quinazolin-7-yl)-5-ethyl-6-fluoronaphthalen-2-ol]
IC50 [1]: 4 nM | IC50 [2]: 137 nM | IC50 [3]: 80 nM | Avg 2 h Coupled Exchange IC50 [4]: 4 nM

CCc1c(F)ccc2cc(O)cc(-c3c(F)cc4c(N5[C@@H]6CCC[C@H]5CNC6)nc(OC[C@@]56CCCN5C[C@H](F)C6)nc4c3F)c12 [Example 172, 4-(4-((1R,5S)-3,9-diazabicyclo[3.3.1]nonan-9-yl)-6,8-difluoro-2-(((2R,7aS)-2-fluorotetrahydro-1H-pyrrolizin-7a(5H)-yl)methoxy)quinazolin-7-yl)-5-ethyl-6-fluoronaphthalen-2-ol]
IC50 [1]: 85 nM | IC50 [2]: 2920 nM | IC50 [3]: 5430 nM | Avg 2 h Coupled Exchange IC50 [4]: 36 nM

N#Cc1cc2c(N3C[C@H]4CC[C@@H](C3)N4)nc(OC[C@@]34CCCN3C[C@H](F)C4)nc2c(F)c1-c1cc(O)cc2ccccc12 [Example 219, 4-((1R,5S)-3,8-Diazabicyclo[3.2.1]octan-3-yl)-8-fluoro-2-(((2R,7aS)-2-fluorotetrahydro-1H-pyrrolizin-7a(5H)-yl)methoxy)-7-(3-hydroxynaphthalen-1-yl)quinazoline-6-carbonitrile]
IC50 [1]: 1 nM | IC50 [2]: 531 nM | IC50 [3]: 92 nM | Avg 2 h Coupled Exchange IC50 [4]: 2 nM

CCc1cccc2cccc(-c3ccc4c(N5C[C@H]6CC[C@@H](C5)N6)nc(OC[C@@]56CCCN5C[C@H](F)C6)nc4c3C)c12 [Example 59, 4-((1R,5S)-3,8-diazabicyclo[3.2. 1]octan-3-yl)-7-(8-ethylnaphthalen-1-yl)-2-(((2R,7aS)-2-fluorotetrahydro-1H-pyrrolizin-7a(5H)-yl)methoxy)-8-methylquinazoline]
IC50 [1]: 8 nM | IC50 [2]: 4160 nM | IC50 [3]: 3380 nM | Avg 2 h Coupled Exchange IC50 [4]: 11 nM

Fc1c(-c2c(C3CC3)ccc3[nH]ncc23)ccc2c(N3C[C@H]4CC[C@@H](C3)N4)nc(OC[C@@]34CCCN3C[C@H](F)C4)nc12 [Example 193, 4-((1R,5S)-3,8-diazabicyclo[3.2.1]octan-3-yl)-7-(5-cyclopropyl-1H-indazol-4-yl)-8-fluoro-2-(((2R,7aS)-2-fluorotetrahydro-1H-pyrrolizin-7a(5H)-yl)methoxy) quinazoline]
IC50 [1]: 15 nM | IC50 [2]: 1080 nM | IC50 [3]: 482 nM | Avg 2 h Coupled Exchange IC50 [4]: 10 nM

N#Cc1cc(O)cc(-c2c(F)cc3c(N4C[C@H]5CC[C@@H](C4)N5)nc(OC[C@@]45CCCN4C[C@H](F)C5)nc3c2F)c1C1CC1 [Example 227, 3-(4-((1R,5S)-3,8-Diazabicyclo[3.2.1]octan-3-yl)-6,8-difluoro-2-(((2R,7aS)-2-fluorotetrahydro-1H-pyrrolizin-7a(5H)-yl)methoxy)quinazolin-7-yl)-2-cyclopropyl-5-hydroxybenzonitrile]
IC50 [1]: 3 nM | IC50 [2]: 308 nM | IC50 [3]: 48 nM | Avg 2 h Coupled Exchange IC50 [4]: 4 nM

Cc1cccc2cccc(-c3c(F)cc4c(N5[C@@H]6CC[C@H]5CNC6)nc(OC[C@@]56CCCN5C[C@H](F)C6)nc4c3F)c12 [Example 23, 4-((1R,5S)-3,8-diazabicyclo[3.2. 1]octan-8-yl)-6,8-difluoro-2-(((2R,7aS)-2-fluorotetrahydro-1H-pyrrolizin-7a(5H)-yl)methoxy)-7-(8-methylnaphthalen-1-yl)quinazoline]
IC50 [1]: 44 nM | IC50 [2]: 2600 nM | IC50 [3]: 10300 nM | Avg 2 h Coupled Exchange IC50 [4]: 19 nM

Oc1cc(-c2c(F)cc3c(N4C[C@H]5CCC[C@@H](C4)N5)nc(OC[C@@]45CCCN4C[C@H](F)C5)nc3c2F)c2ccccc2c1 [Example 120, 4-(4-((1R,5S)-3,9-diazabicyclo[3.3.1]nonan-3-yl)-6,8-difluoro-2-(((2R,7aS)-2-fluorotetrahydro-1H-pyrrolizin-7a(5H)-yl)methoxy)quinazolin-7-yl)naphthalen-2-ol]
IC50 [1]: 8 nM | IC50 [2]: 1170 nM | IC50 [3]: 1160 nM | Avg 2 h Coupled Exchange IC50 [4]: 4 nM

C#Cc1c(F)ccc2cc(O)cc(-c3c(F)cc4c(N5C[C@H]6CC[C@@H](C5)N6)nc(OC[C@@]56CCCN5C[C@H](F)C6)nc4c3F)c12 [Example 189, 4-(4-((1R,5S)-3,8-diazabicyclo[3.2.1]octan-3-yl)-6,8-difluoro-2-(((2R,7aS)-2-fluorotetrahydro-1H-pyrrolizin-7a(5H)-yl)methoxy)quinazolin-7-yl)-5-ethynyl-6-fluoronaphthalen-2-ol]
IC50 [1]: 4 nM | IC50 [2]: 2 nM | IC50 [3]: 1 nM | Avg 2 h Coupled Exchange IC50 [4]: 3 nM

C#Cc1c(F)ccc2cc(O)cc(-c3ccc4c(N5[C@@H]6CC[C@H]5CNC6)nc(OC[C@@]56CCCN5C[C@H](F)C6)nc4c3F)c12 [Example 187, 4-(4-((1R,5S)-3,8-diazabicyclo[3.2.1]octan-8-yl)-8-fluoro-2-(((2R,7aS)-2-fluorotetrahydro-1H-pyrrolizin-7a(5H)-yl)methoxy)quinazolin-7-yl)-5-ethynyl-6-fluoronaphthalen-2-ol]
IC50 [1]: 2 nM | IC50 [2]: 16 nM | IC50 [3]: 5 nM | Avg 2 h Coupled Exchange IC50 [4]: 1 nM

Oc1cc(-c2c(F)cc3c(N4C[C@H]5CC[C@@H]4CN5)nc(OC[C@@]45CCCN4C[C@H](F)C5)nc3c2F)c2ccccc2c1Cl [Example 206, 4-(4-((1R,4R)-2,5-Diazabicyclo[2.2.2]octan-2-yl)-6,8-difluoro-2-(((2R,7aS)-2-fluorotetrahydro-1H-pyrrolizin-7a(5H)-yl)methoxy)quinazolin-7-yl)-1-chloronaphthalen-2-ol]
IC50 [1]: 30 nM | IC50 [2]: 705 nM | IC50 [3]: 116 nM | Avg 2 h Coupled Exchange IC50 [4]: 42 nM
